Data set [1] is classed as physicochemical. To be noted: for Cyazofamid Technical, 0 Day / Cyazofamid Technical, 14 Day: storage at 54° C. As to the method: Experiment: Cyazofamid technical was mixed with Na2CO3 (Inorganic base) in one batch and with HMT (organic base) in the other. Both the samples were kept at 54° C. for 14 days. After 14 days, the cyazofamid content in both the samples was analyzed. […] The stability of cyazofamid technical was tested in the presence of an inorganic base and compared with the stability in the presence of an organic base, with the following results: […]

The format of data set [2] is physicochemical. As to the method:
The following compositions comprising cyazofamid and Mancozeb were prepared, with the different stabilizers substituted. The AHS stability of these formulations was tested.
The formulation prepared according to Example 1 (adjusted for purity of the technical material) was modified to replace the HMT content with 1.0% sodium carbonate. The stability of both the formulations were tested, with the following results: […]

[3] abbreviates: Example 1 formulation with HMT replaced by 1.0% Na2CO3.
Where [4] appears, read: Example 1 formulation with HMT replaced by 1.0% Na2CO3, 14 D AHS at 54° C.
Where [5] appears, read: Example 1 formulation, presence of 1.0% HMT.
[6] abbreviates: Example 1 formulation, presence of 1.0% HMT, 14 D AHS at 54° C.

Like-named read-outs stand apart in the source and are kept apart here.

For the compound `Cc1ccc(-c2c(Cl)nc(C#N)n2S(=O)(=O)N(C)C)cc1` [Cyazofamid, 4-chloro-2-cyano-N,N-dimethyl-5-p-tolylimidazole-1-sulfonamide], the “Cyazofamid Technical, 0 Day” value amounted to 95.10 in data set [1] (HMT 0.5%) and 95.98 in data set [1] (Na2CO3 0.5%). For the same compound, the “Cyazofamid Technical, 14 Day” value in data set [1] (HMT 0.5%) stood at 94.27; in data set [1] (Na2CO3 0.5%), 92.38. For the same compound, the “Cyazofamid content, 0 D” value in data set [1] (Presence of 0.5% HMT) is 95.1 %, w/w; in data set [1] (Presence of 0.5% Na2CO3), 95.98 %, w/w. Moreover, the “Cyazofamid content, 14 D AHS at 54° C.” value in data set [1] (Presence of 0.5% HMT) is recorded as 94.27 %, w/w; in data set [1] (Presence of 0.5% Na2CO3), 92.38 %, w/w. In data set [2] (14 day), the “Degradation (%)” value was found to be 11.16%. Besides, the “Active content in formulation, 0 D” value is recorded as 6.27 %, w/w in data set [2] (setting [3]) and 5.59 %, w/w in data set [2] (setting [5]). The “Active content in formulation, 14 D AHS at 54° C.” value in data set [2] (setting [4]) is recorded as 5.57 %, w/w; in data set [2] (setting [6]), 5.43 %, w/w. Moreover, the “drop in cyazofamid concentration upon accelerated storage” value (2 weeks at 54° C.) is 12.5%. For the same compound, under “14 days”, the “Degradation with respect to storage at ambient condition” value came out at 12.87%. Further, the “Purity after 14 days of storage at 10° C.” value (glass bottle, air tight plug and cap, 10° C., 14 days) is 95.36. Under “glass bottle, air tight plug and cap, 54 ± 2° C., 14 days”, the “Purity after 14 days of storage at 54 ± 2° C.” value is reported as 83.25. Also, the “Purity after 14 days, Room temperature (30-35° C.)” value (glass bottle, air tight plug and cap, room temperature (30-35° C.), 14 days) stood at 95.55.
For the compound Mancozeb, the “Active content in formulation, 0 D” value in data set [2] (setting [3]) is recorded as 70.67 %, w/w; in data set [2] (setting [5]) it was 70.34 %, w/w. The “Active content in formulation, 14 D AHS at 54° C.” value in data set [2] (setting [4]) was 70.49 %, w/w; in data set [2] (setting [6]), 70.14 %, w/w. In addition, the “Degradation (%)” value in data set [2] (setting [4]) worked out at 0.25%; in data set [2] (setting [6]), 0.28%.

The values above are taken from patent US9578875B2, “Fungicidal composition” (priority 2013, dated 2017).
